Experiments:
[1] = biological target: T1, human mAChR M1 (Homo sapiens, UniProt P11229); assay: mAChR M1 cell-based functional assay (calcium mobilization), agonist activity upon compound addition; conditions: CHO-K1 cells expressing hM1; for EC50: compound alone, before acetylcholine addition; for Emax: relative to the maximum for acetylcholine
T1 construct: host or cells: CHO-K1 cells (ATCC), stably transfected using Lipofectamine2000
T1 sequence (P11229 1-460): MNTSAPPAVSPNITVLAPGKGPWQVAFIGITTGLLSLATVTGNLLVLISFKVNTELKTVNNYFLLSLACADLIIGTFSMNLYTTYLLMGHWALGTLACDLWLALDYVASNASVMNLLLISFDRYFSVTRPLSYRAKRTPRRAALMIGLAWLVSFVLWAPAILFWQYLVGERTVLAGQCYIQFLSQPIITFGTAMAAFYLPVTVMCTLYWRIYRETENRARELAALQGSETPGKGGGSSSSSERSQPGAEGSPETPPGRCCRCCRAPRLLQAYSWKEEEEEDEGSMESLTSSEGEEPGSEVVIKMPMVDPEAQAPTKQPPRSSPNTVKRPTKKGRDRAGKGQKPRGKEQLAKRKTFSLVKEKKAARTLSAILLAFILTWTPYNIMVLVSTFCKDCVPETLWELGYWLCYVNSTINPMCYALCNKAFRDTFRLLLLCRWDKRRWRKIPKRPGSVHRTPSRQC
Text: (§1) Chinese hamster ovary (CHO-K1) cells stably expressing rat (r)M1 were purchased from the American Type Culture Collection and cultured according to their indicated protocol. CHO cells stably expressing human (h)M2, hM3, and hM5 were described previously (Levey, et al., 1991); hM1 and hM4 cDNAs were purchased from Missouri S&T cDNA Resource; rM4 cDNA was provided by T. L. Bonner (National Institutes of Health, Bethesda, MID). rM2 and rM3 were cloned from a rat brain cDNA library and sequence verified. hM1, rM2, rM3, hM4, and rM4 cDNAs were used to stably transfect CHO-K1 cells purchased from the American Type Culture Collection using Lipofectamine2000. To make stable rM2, hM2, rM3, hM4, and rM4 cell lines for use in calcium mobilization assays, these cells also were stably transfected with a chimeric G-protein (Gqi5) (provided by B. R. Conklin, University of California, San Francisco) using Lipofectamine 2000. rM1, hM1, rM3, hM3, rM5, and hM5 cells were grown in Ham's F-12 medium containing 10% heat-inactivated fetal bovine serum (FBS), 20 mM HEPES, and 50 μg/mL G418 sulfate. rM2-Gq15, hM2-Gqi5, and hM4-Gqi5 cells were grown in the same medium also containing 500 μg/mL Hygromycin B. Stable rM4-Gqi5 cells were grown in DMEM containing 10% heat-inactivated FBS, 20 mM HEPES, 400 μg/mL G418 sulfate, and 500 μg/mL Hygromycin B.
(§2) For high throughput measurement of agonist-evoked increases in intracellular calcium, CHO-K1 cells stably expressing muscarinic receptors were plated in growth medium lacking G418 and hygromycin at 15,000 cells/20 μL/well in Greiner 384-well black-walled, tissue culture (TC)-treated, clear-bottom plates (VWR). Cells were incubated overnight at 37° C. and 5% CO2. The next day, cells were washed using an ELX 405 (BioTek) with four washes (80 μL) of assay buffer then aspirated to 20 μL. Next, 20 μL of 16 μM Fluo-4/acetoxymethyl ester (Invitrogen, Carlsbad, Calif.) prepared as a 2.3 mM stock in DMSO and mixed in a 1:1 ratio with 10% (w/v) Pluronic F-127 and diluted in assay buffer was added to the wells and the cell plates were incubated for 50 min at 37° C. and 5% CO2. Dye was removed by washing with the ELX 405 (four 80 μL washes of assay buffer) then aspirated to 20 μL. Compound master plates were formatted in an 11 point CRC format (1:3 dilutions) in 100% DMSO with a starting concentration of 10 mM using the BRAVO liquid handler (Agilent). Test compound CRCs were then transferred to daughter plates (240 nL) using the Echo acoustic plate reformatter (Labcyte, Sunnyvale, Calif.) and then diluted into assay buffer (40 μL) to a 2× stock using a Thermo Fisher Combi (Thermo Fisher Scientific, Waltham, Mass.).
(§3) Calcium flux was measured using the Functional Drug Screening System (FDSS) 6000 (Hamamatsu Corporation, Tokyo, Japan) as an increase in the fluorescent static ratio. Compounds were applied to cells (20 μL, 2×) using the automated system of the FDSS 6000 at 4 s into the 300 s protocol and the data were collected at 1 Hz. At 144 s into the 300s protocol, 10 μL of an EC20 concentration of the muscarinic receptor agonist acetylcholine was added (5×), followed by the addition of 12 μL an EC80 concentration of acetylcholine at the 230 s time point (5×). Agonist activity was analyzed as a concentration-dependent increase in calcium mobilization upon compound addition. Emax values for agonist activity are expressed relative to the maximum for acetylcholine. Positive allosteric modulator activity was analyzed as a concentration-dependent increase in the EC20 acetylcholine response. Antagonist activity was analyzed as a concentration-dependent decrease in the EC80 acetylcholine response. Concentration-response curves were generated using a four-parameter logistical equation in XLfit curve fitting software (IDBS, Bridgewater, N.J.) for Excel (Microsoft, Redmond, Wash.) or Prism (GraphPad Software, Inc., San Diego, Calif.). […]

[2] = biological target: T1, human mAChR M1; assay: mAChR M1 cell-based functional assay (calcium mobilization), PAM activity: increase in the EC20 acetylcholine response; conditions: CHO-K1 cells expressing hM1; potentiation of EC20 acetylcholine response
Text: as §1, §2, §3

EC50 [1] [µM]	Emax [1] [%]	EC50 [2] [µM]	Emax [2] [%]	Compound
> 10	< 5	7.78	64	O=C(N[C@H]1CCC[C@@H]1O)c1cn(Cc2ccc(-n3cccn3)cc2)c(=O)c2cccnc12 [Compound A14, 6-(4-(1H-pyrazol-1-yl)benzyl)-N-((1S,2S)-2-hydroxycyclopentyl)-5-oxo-5,6-dihydro-1,6-naphthyridine-8-carboxamide]
–	34	1.37	68	Cn1cc(-c2ccc(Cn3cc(C(=O)N[C@H]4CCOC[C@@H]4O)c4ncccc4c3=O)cn2)cn1 [Compound A15, N-((3R,4S)-3-hydroxytetrahydro-2H-pyran-4-yl)-6-((6-(1-methyl-1H-pyrazol-4-yl)pyridin-3-yl)methyl)-5-oxo-5,6-dihydro-1,6-naphthyridine-8-carboxamide]
–	27	0.98	68	Cn1cc(-c2ccc(Cn3cc(C(=O)N[C@H]4CCCC[C@@H]4O)c4ncccc4c3=O)cn2)cn1 [Compound A16, N-((1S,2S)-2-hydroxycyclohexyl)-6-((6-(1-methyl-1H-pyrazol-4-yl)pyridin-3-yl)methyl)-5-oxo-5,6-dihydro-1,6-naphthyridine-8-carboxamide]
> 10	< 5	≥ 10	55	Cn1cc(-c2ccc(Cn3cc(C(=O)N[C@H]4CCC[C@@H]4O)c4ncccc4c3=O)cn2)cn1 [Compound A17, N-((1S,2S)-2-hydroxycyclopentyl)-6-((6-(1-methyl-1H-pyrazol-4-yl)pyridin-3-yl)methyl)-5-oxo-5,6-dihydro-1,6-naphthyridine-8-carboxamide]
> 10	< 5	1.66	60	Cn1cc(-c2ccc(Cn3cc(C(=O)N[C@H]4CCCCC[C@@H]4O)c4ncccc4c3=O)cn2)cn1 [Compound A18, N-((1S,2S)-2-hydroxycycloheptyl)-6-((6-(1-methyl-1H-pyrazol-4-yl)pyridin-3-yl)methyl)-5-oxo-5,6-dihydro-1,6-naphthyridine-8-carboxamide]
–	20	2.49	67	Cc1nc(-c2ccc(Cn3cc(C(=O)N[C@H]4CCOC[C@@H]4O)c4ncccc4c3=O)cc2)co1 [Compound A19, N-((3R,4S)-3-hydroxytetrahydro-2H-pyran-4-yl)-6-(4-(2-methyloxazol-4-yl)benzyl)-5-oxo-5,6-dihydro-1,6-naphthyridine-8-carboxamide]
> 10	< 5	0.78	63	Cc1nc(-c2ccc(Cn3cc(C(=O)N[C@H]4CCCC[C@@H]4O)c4ncccc4c3=O)cc2)co1 [Compound A20, N-((1S,2S)-2-hydroxycyclohexyl)-6-(4-(2-methyloxazol-4-yl)benzyl)-5-oxo-5,6-dihydro-1,6-naphthyridine-8-carboxamide]
1.23	31	0.019	72	Cn1cc2c(-c3cc(F)c(Cn4cc(C(=O)N[C@H]5CCOC[C@@H]5O)c5ncccc5c4=O)c(F)c3)cccc2n1 [Compound A21, 6-(2,6-difluoro-4-(2-methyl-2H-indazol-4-yl)benzyl)-N-((3R,4S)-3-hydroxytetrahydro-2H-pyran-4-yl)-5-oxo-5,6-dihydro-1,6-naphthyridine-8-carboxamide]
> 10	< 5	0.052	67	Cn1cc2c(-c3cc(F)c(Cn4cc(C(=O)N[C@H]5CCCC[C@@H]5O)c5ncccc5c4=O)c(F)c3)cccc2n1 [Compound A22, 6-(2,6-difluoro-4-(2-methyl-2H-indazol-4-yl)benzyl)-N-((1S,2S)-2-hydroxycyclohexyl)-5-oxo-5,6-dihydro-1,6-naphthyridine-8-carboxamide]
